Experimental findings from US20250332173A1, “COMPOUNDS AND METHODS FOR MODULATING NUCLEIC ACID SPLICING” (REMIX THERAPEUTICS INC., priority 2021, published 2025) are described below.

Holding throughout (assay type): cell-based, human
One assay has as its system SMN2 mRNA. The assay is described as follows: RT-qPCR splicing assay, SMN2 canonical junction (CJ) mRNA. The conditions noted are these: Homo sapiens; canonical junction qPCR panel, Table 5; read-out: SMN2 (decrease in CJ mRNA levels, IC50). Put shortly:
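Exposure: 24 h, 37 °C, 11-point 3-fold dilutions from 10 uM final, DMSO at or below 0.25%, in A673 or K562 cells. Detection: cell-lysate RT-qPCR of canonical junction mRNA relative to GAPDH, GUSB or PPIA.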
Background: In qPCR the cycle at which signal appears reflects the starting amount.

The subject of the next assay is MYB. Briefly: HiBiT protein abundance assay, MYB HiBiT K562 cell line. The conditions noted are these: HiBiT K562 cell line, 24 hours, top dose 10 μM; read-out: Effect on protein abundance, MYB (IC50 category). Put shortly:
(§1)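 Tagged-protein abundance measured by split-NanoBiT luminescence after lysis, following 24 h compound exposure (37° C; 10 μM top, 3-fold, 10 points; DMSO ≤0.25%) of HiBiT knock-in K562 cells. Percent response vs DMSO and unmodified-cell controls; 4-parameter logistic interpolation at 50% gave IC50.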
A general note: The HiBiT peptide binds its large partner to form an active luciferase.

Another assay relates to HTT. Briefly: HiBiT protein abundance assay, HTT HiBiT K562 cell line. The conditions noted are these: HiBiT K562 cell line, 24 hours, top dose 10 μM; read-out: Effect on protein abundance, HTT (IC50 category). Put shortly: as §1
The subject of another assay is Target C. The assay is described as follows: HiBiT protein abundance assay, Target C (Promega Nano-Glo HiBiT Lytic Detection System, knock-in K562 cell line). The conditions noted are these: Homo sapiens, K562, 24 h, HiBiT K562 cell line, 24 hours, top dose 10 μM; read-out: Effect on protein abundance, Target C (IC50 category). Put shortly: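 Protein abundance was read by Nano-Glo HiBiT lytic luminescence after 24 h compound exposure (10-point, threefold series from 10 μM final) of HiBiT knock-in K562 cells. Parental K562 served as baseline; the 50%-abundance concentration was interpolated from a four-parameter logistic fit.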

For orientation: IC50 means the concentration at which inhibition is half-maximal.

For `Cc1cn2cc(-c3ccc4c(=O)n(C5CCNCC5)ccc4n3)cc(C)c2n1` [Compound 1241, 2-(2,8-dimethylimidazo[1,2-a]pyridin-6-yl)-6-(piperidin-4-yl)-1,6-naphthyridin-5(6H)-one], the 50% inhibitory concentration (IC50) with SMN2 mRNA, with MYB, with HTT and with Target C was below 100 nM throughout.
On to `Cn1cc2cc(-c3ccc4c(=O)n(C5CCNC6(CC6)C5)ccc4n3)c(O)cc2n1` (stereo not drawn) [Compound 1242], for which the IC50 in the assay with SMN2 mRNA, with MYB, in the assay with HTT and with Target C was below 100 nM in each case.
Take `COc1c(-c2ccc3c(=O)n(C4CCNCC4)ccc3n2)cc2cn(C)nc2c1C` [Compound 1243]: the 50% inhibitory concentration (IC50) in the assay with SMN2 mRNA, with MYB, with HTT and in the assay on Target C was above 10000 nM in each case.
Turning to `Cn1cc2cc(-c3ccc4c(=O)n([C@@H]5CCNC6(CC6)C5)ccc4n3)c(O)cc2n1` [Compound 1246], the IC50 in the assay on SMN2 mRNA is below 100 nM; in the assay on MYB, 100 to 1000 nM; in the assay on HTT it was 100 to 1000 nM; in the assay with Target C, 100 to 1000 nM.
For `Cc1c(O)c(-c2ccc3c(=O)n(C4CCNCC4)cc(C)c3n2)cc2cn(C)nc12` [Compound 1284], the IC50 in the assay with SMN2 mRNA was below 100 nM; with MYB, below 100 nM; with HTT, below 100 nM; in the assay with Target C, 100 to 1000 nM.
Regarding `Cc1cn(C2CCNCC2)c(=O)c2ccc(-c3cc4cn(C)nc4c(F)c3O)nc12` [Compound 1285], the IC50 in the assay with SMN2 mRNA, in the assay on MYB, in the assay on HTT and with Target C was below 100 nM in each case.
On to `Cn1cc2nc(-c3ccc4c(=O)n(C5CCNCC5)ccc4n3)c(O)cc2n1` [Compound 1296], for which the IC50 was below 100 nM in the assay with SMN2 mRNA, below 100 nM with MYB, below 100 nM in the assay on HTT and 100 to 1000 nM in the assay on Target C.
As for `Cc1cn2cc(-c3ccc4c(=O)n(C5CCNCC5)ccc4n3)cc(C#N)c2n1` [Compound 1297], the IC50 with SMN2 mRNA was below 100 nM; in the assay with MYB, 100 to 1000 nM; in the assay with HTT it was 100 to 1000 nM; in the assay with Target C, 100 to 1000 nM.
As to `Cc1cn2cc(-c3ccc4c(=O)n(C5CCNC5)ccc4n3)cc(F)c2n1` (stereo not drawn) [Compound 1299], the IC50 with SMN2 mRNA is 100 to 1000 nM; in the assay with MYB, 1000 to 10000 nM; in the assay with HTT, above 10000 nM; in the assay on Target C it was above 10000 nM.
As for `Cc1c(O)c(-c2ncc3c(=O)n(C4CCC(N)CC4)ccc3n2)cc2cn(C)nc12` (stereo not drawn) [Compound 1300, 6-((1s,4s)-4-aminocyclohexyl)-2-(6-hydroxy-2,7-dimethyl-2H-indazol-5-yl)pyrido[4,3-d]pyrimidin-5(6H)-one], the 50% inhibitory concentration (IC50) was below 100 nM in the assay on SMN2 mRNA, 100 to 1000 nM with MYB, 100 to 1000 nM in the assay on HTT and 1000 to 10000 nM in the assay with Target C.
Consider `Cc1cn2cc(-c3ncc4c(=O)n(C5CCNCC5)ccc4n3)cc(C#N)c2n1` [Compound 1301], for which the IC50 was below 100 nM with SMN2 mRNA, 100 to 1000 nM in the assay with MYB, 100 to 1000 nM in the assay on HTT and 100 to 1000 nM in the assay with Target C.
As to `Cc1cn2cc(-c3ccc4c(=O)n(C5CCNC5)ccc4n3)c(O)c(C)c2n1` (stereo not drawn) [Compound 1302], the IC50 was 1000 to 10000 nM in the assay with SMN2 mRNA, above 10000 nM in the assay with MYB, above 10000 nM in the assay with HTT and above 10000 nM with Target C.
On to `Cc1c(O)c(-c2ncc3c(=O)n(N4CCNCC4)ccc3n2)cc2cn(C)nc12` [Compound 1303], for which the 50% inhibitory concentration (IC50) in the assay on SMN2 mRNA is below 100 nM; in the assay with MYB, 100 to 1000 nM; in the assay on HTT, 100 to 1000 nM; with Target C it was 100 to 1000 nM.
Take `Cc1c(O)c(-c2ncc3c(=O)n(C4CCN(C)CC4)ccc3n2)cc2cn(C)nc12` [Compound 1304]: the IC50 in the assay on SMN2 mRNA was below 100 nM; with MYB, 100 to 1000 nM; in the assay with HTT, 100 to 1000 nM; in the assay with Target C, 1000 to 10000 nM.
Take `Cc1c(O)c(-c2ncc3c(=O)n(C4CNC4)ccc3n2)cc2cn(C)nc12` [Compound 1305, 6-(azetidin-3-yl)-2-(6-hydroxy-2,7-dimethyl-indazol-5-yl)pyrido[4,3-d]pyrimidin-5-one]: the IC50 was below 100 nM with SMN2 mRNA, 100 to 1000 nM with MYB, above 10000 nM with HTT and above 10000 nM in the assay on Target C.
In the case of `Cc1c(O)c(-c2ncc3c(=O)n(C45CCC(N)(CC4)C5)ccc3n2)cc2cn(C)nc12` [Compound 1428], the IC50 is below 100 nM with SMN2 mRNA, below 100 nM with MYB, 1000 to 10000 nM in the assay with HTT and 1000 to 10000 nM in the assay on Target C.
As for `Cc1c(O)c(-c2ncc3c(=O)n([C@@H]4C[C@H]5CC[C@@H](C4)N5)ccc3n2)cc2cn(C)nc12` [Compound 1429, 6-[(1S,5R)-8-azabicyclo[3.2.1]octan-3-yl]-2-(6-hydroxy-2,7-dimethyl-indazol-5-yl)pyrido[4,3-d]pyrimidin-5-one], the IC50 in the assay with SMN2 mRNA is below 100 nM; in the assay with MYB, below 100 nM; in the assay with HTT it was 100 to 1000 nM; in the assay on Target C it was 100 to 1000 nM.
For `Cc1c(O)c(-c2ncc3c(=O)n([C@H]4C[C@@H](N)C4)ccc3n2)cc2cn(C)nc12` [Compound 1431, 6-((1s,3s)-3-aminocyclobutyl)-2-(6-hydroxy-2,7-dimethyl-2H-indazol-5-yl)pyrido[4,3-d]pyrimidin-5(6H)-one], the IC50 in the assay with SMN2 mRNA lay within 100 to 1000 nM; in the assay with MYB, 100 to 1000 nM; with HTT it was 1000 to 10000 nM; with Target C it was 1000 to 10000 nM.
As to `Cc1c(O)c(-c2ncc3c(=O)n([C@H]4C[C@H](N)C4)ccc3n2)cc2cn(C)nc12` [Compound 1432, 6-((1r,3r)-3-aminocyclobutyl)-2-(6-hydroxy-2,7-dimethyl-2H-indazol-5-yl)pyrido[4,3-d]pyrimidin-5(6H)-one], the IC50 in the assay with SMN2 mRNA was below 100 nM; in the assay on MYB, 100 to 1000 nM; in the assay on HTT, 1000 to 10000 nM; in the assay with Target C it was 1000 to 10000 nM.
For `Cc1c(O)c(-c2ncc3c(=O)n([C@@H]4CCN[C@H](C)C4)ccc3n2)cc2cn(C)nc12` [Compound 1434, 2-(6-hydroxy-2,7-dimethyl-indazol-5-yl)-6-(2-methyl-4-piperidyl)pyrido[4,3-d]pyrimidin-5-one], the IC50 in the assay on SMN2 mRNA was below 100 nM; with MYB, 100 to 1000 nM; in the assay on HTT, 100 to 1000 nM; in the assay with Target C, 1000 to 10000 nM.
For `Cc1c(O)c(-c2ncc3c(=O)n([C@H]4CCNC(C)(C)C4)ccc3n2)cc2cn(C)nc12` [Compound 1436], the IC50 is below 100 nM with SMN2 mRNA, below 100 nM in the assay on MYB, 100 to 1000 nM in the assay with HTT and 100 to 1000 nM with Target C.
With `Cc1cn2nc(-c3ccc4c(=O)n([C@H]5CCNC5)ccc4n3)cc(C)c2n1` [Compound 1437, 2-(2,8-dimethylimidazo[1,2-b]pyridazin-6-yl)-6-[(3S)-pyrrolidin-3-yl]-1,6-aphthyridin-5-one], the IC50 with SMN2 mRNA is below 100 nM; in the assay on MYB it was 100 to 1000 nM; in the assay with HTT, 1000 to 10000 nM; in the assay with Target C, 1000 to 10000 nM.
As to `Cc1cn2nc(-c3ccc4c(=O)n([C@@H]5CCNC5)ccc4n3)cc(C)c2n1` [Compound 1438, 2-(2,8-dimethylimidazo[1,2-b]pyridazin-6-yl)-6-[(3R)-pyrrolidin-3-yl]-1,6-naphthyridin-5-one], the half-maximal inhibitory concentration (IC50) is below 100 nM in the assay with SMN2 mRNA, 100 to 1000 nM with MYB, 1000 to 10000 nM with HTT and 1000 to 10000 nM in the assay with Target C.
As to `Cc1c(O)c(-c2ncc3c(=O)n([C@H]4CCN[C@@H](C)C4)ccc3n2)cc2cn(C)nc12` [Compound 1441, 2-(6-hydroxy-2,7-dimethyl-indazol-5-yl)-6-(2-methyl-4-piperidyl)pyrido[4,3-d]pyrimidin-5-one], the IC50 in the assay on SMN2 mRNA is below 100 nM; in the assay with MYB, below 100 nM; in the assay with HTT, below 100 nM; in the assay with Target C it was 100 to 1000 nM.
For `Cc1c(O)c(-c2ncc3c(=O)n(C4CCNC(C)(C)C4)ccc3n2)cc2cn(C)nc12` (stereo not drawn) [Compound 1442], the IC50 in the assay with SMN2 mRNA was below 100 nM; in the assay with MYB, below 100 nM; with HTT it was 100 to 1000 nM; in the assay on Target C it was 100 to 1000 nM.
In the case of `Cc1c(O)c(-c2ncc3c(=O)n([C@@H]4C[C@H]5C[C@@H]4CN5)ccc3n2)cc2cn(C)nc12` [Compound 1445, 6-[(1R,4R,5R)-2-azabicyclo[2.2.1]heptan-5-yl]-2(6-hydroxy-2,7-dimethyl-indazol-5-yl)pyrido[4,3-d]pyrimidin-5-one], the IC50 is 100 to 1000 nM with SMN2 mRNA, 1000 to 10000 nM with MYB, above 10000 nM in the assay on HTT and above 10000 nM in the assay on Target C.
Turning to `Cc1c(O)c(-c2ccc3c(=O)n(C4CC(C)NC(C)C4)ccc3n2)cc2cn(C)nc12` (stereo not drawn) [Compound 1447, 6-(2,6-dimethyl-4-piperidyl)-2-(6-hydroxy-2,7-dimethyl-indazol-5-yl)-1,6-naphthyridin-5-one], the IC50 is below 100 nM in the assay with SMN2 mRNA, below 100 nM with MYB, 100 to 1000 nM with HTT and 100 to 1000 nM with Target C.
